Laboratory results published in paper PMC4457528, “Identification of Novel Small Molecule Inhibitors of Oncogenic RET Kinase” (PLoS ONE, 2015).
Read-outs that look alike come from different tables or passages of the source.

Key:
RET/C634Y = conditions: 10 nM, 2 hr, NIH3T3, Western blotting, data not shown
TPC-1 cells = experiment: Growth curves, TPC-1 papillary thyroid carcinoma cells (RET/PTC1); type: cell-based; conditions: Homo sapiens, TPC1; 2% serum; 95% CI in brackets; read-out: Growth inhibition IC50 dose TPC-1
Description: TT human cell line was obtained in 2002 from ATCC and authenticated by RET genotyping; it was derived from a MTC and harbors a cysteine 634 to tryptophan (C634W) RET mutation. TT cells were grown in RPMI 1640 supplemented with 20% fetal calf serum (GIBCO). MZ-CRC-1 human cells were kindly provided in 2009 by Robert F. Gagel (MD Anderson, Houston, TX) and authenticated by RET genotyping. […] Nthy-ori 3–1, a human thyroid follicular epithelial cell line immortalized by the SV40 large T gene, was obtained from European Collection of Cell Cultures (ECACC) (Wiltshire, UK) in 2010.
(§1) To compare cell growth, we performed unpaired Student’s t test using the Instat software program (Graphpad Software Inc). P values were two-sided, and differences were considered statistically significant at P <.02. IC50 doses were calculated through a curve fitting analysis from last day values using the PRISM software program (Graphpad Software Inc).

RAT RET/M918T cells = experiment: Growth curves, RAT1 cells transformed by RET/M918T; type: cell-based; conditions: low serum, last day values, 95% CI in brackets, read-out: Growth inhibition IC50 dose: RAT RET/M918T
Description: as §1

KinomeScan kinase panel [1] = biological target: T1, KinomeScan kinase panel (Homo sapiens, UniProt P29322); experiment: KinomeScan kinase panel, single concentration 10 µM; type: binding; conditions: EPHA8, 10 µM; read-out: score (%)
T1 construct: purchased DiscoveRx (KinomeScan)
T1 sequence (P29322 28-1005): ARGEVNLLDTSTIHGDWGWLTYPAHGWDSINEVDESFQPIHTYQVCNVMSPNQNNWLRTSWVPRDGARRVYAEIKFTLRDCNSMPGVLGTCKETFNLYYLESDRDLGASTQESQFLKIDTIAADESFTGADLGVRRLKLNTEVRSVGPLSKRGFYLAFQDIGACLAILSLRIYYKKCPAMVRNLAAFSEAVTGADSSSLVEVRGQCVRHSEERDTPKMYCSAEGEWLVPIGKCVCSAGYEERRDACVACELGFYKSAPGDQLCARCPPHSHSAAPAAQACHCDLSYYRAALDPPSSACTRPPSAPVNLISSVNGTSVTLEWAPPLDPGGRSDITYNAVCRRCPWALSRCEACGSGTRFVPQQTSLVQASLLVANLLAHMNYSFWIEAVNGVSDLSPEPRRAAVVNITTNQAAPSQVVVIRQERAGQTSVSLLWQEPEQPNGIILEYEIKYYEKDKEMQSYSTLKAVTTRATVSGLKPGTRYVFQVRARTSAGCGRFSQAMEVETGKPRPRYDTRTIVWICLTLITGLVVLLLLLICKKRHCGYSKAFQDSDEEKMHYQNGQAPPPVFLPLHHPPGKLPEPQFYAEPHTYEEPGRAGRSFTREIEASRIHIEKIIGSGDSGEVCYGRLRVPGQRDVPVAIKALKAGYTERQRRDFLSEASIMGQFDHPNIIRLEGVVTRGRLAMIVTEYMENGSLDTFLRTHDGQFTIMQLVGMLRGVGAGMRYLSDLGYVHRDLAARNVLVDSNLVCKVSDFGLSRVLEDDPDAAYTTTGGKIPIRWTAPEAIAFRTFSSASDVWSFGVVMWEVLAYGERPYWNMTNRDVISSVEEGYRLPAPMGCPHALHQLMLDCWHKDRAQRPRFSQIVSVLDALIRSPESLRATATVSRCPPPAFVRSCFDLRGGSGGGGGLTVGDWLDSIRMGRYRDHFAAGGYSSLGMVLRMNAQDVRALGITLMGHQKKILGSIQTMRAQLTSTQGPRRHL

KinomeScan kinase panel [2] = biological target: T2, KinomeScan kinase panel (Homo sapiens, UniProt Q86V86); experiment: as above; type: binding; conditions: PIM3, 10 µM; read-out: score (%)
T2 construct: purchased DiscoveRx (KinomeScan)

KinomeScan kinase panel [3] = biological target: T3, KinomeScan kinase panel (Homo sapiens, UniProt O75914); experiment: as above; type: binding; conditions: PAK3, 10 µM; read-out: score (%)
T3 construct: purchased DiscoveRx (KinomeScan)
T3 sequence (O75914 whole entry): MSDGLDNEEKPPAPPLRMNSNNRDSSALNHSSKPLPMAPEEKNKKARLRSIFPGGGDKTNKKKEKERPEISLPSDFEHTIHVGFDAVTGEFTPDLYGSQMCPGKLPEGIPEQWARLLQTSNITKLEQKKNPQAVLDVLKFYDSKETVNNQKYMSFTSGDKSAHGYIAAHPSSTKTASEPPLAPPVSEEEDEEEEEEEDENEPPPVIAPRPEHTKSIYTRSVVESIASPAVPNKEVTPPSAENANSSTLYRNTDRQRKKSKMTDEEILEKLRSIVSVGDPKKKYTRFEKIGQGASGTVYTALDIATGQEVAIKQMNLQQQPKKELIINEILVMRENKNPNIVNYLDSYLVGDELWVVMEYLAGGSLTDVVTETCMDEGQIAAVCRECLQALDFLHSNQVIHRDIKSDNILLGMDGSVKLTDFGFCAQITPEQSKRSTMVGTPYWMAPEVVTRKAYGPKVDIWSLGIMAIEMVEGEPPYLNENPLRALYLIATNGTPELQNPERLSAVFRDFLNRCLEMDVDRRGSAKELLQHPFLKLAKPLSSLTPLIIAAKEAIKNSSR

KinomeScan kinase panel [4] = biological target: T4, KinomeScan kinase panel (Homo sapiens, UniProt Q2M2I8); experiment: as above; type: binding; conditions: AAK1, 10 µM; read-out: score (%)
T4 construct: purchased DiscoveRx (KinomeScan)
T4 sequence (Q2M2I8 whole entry): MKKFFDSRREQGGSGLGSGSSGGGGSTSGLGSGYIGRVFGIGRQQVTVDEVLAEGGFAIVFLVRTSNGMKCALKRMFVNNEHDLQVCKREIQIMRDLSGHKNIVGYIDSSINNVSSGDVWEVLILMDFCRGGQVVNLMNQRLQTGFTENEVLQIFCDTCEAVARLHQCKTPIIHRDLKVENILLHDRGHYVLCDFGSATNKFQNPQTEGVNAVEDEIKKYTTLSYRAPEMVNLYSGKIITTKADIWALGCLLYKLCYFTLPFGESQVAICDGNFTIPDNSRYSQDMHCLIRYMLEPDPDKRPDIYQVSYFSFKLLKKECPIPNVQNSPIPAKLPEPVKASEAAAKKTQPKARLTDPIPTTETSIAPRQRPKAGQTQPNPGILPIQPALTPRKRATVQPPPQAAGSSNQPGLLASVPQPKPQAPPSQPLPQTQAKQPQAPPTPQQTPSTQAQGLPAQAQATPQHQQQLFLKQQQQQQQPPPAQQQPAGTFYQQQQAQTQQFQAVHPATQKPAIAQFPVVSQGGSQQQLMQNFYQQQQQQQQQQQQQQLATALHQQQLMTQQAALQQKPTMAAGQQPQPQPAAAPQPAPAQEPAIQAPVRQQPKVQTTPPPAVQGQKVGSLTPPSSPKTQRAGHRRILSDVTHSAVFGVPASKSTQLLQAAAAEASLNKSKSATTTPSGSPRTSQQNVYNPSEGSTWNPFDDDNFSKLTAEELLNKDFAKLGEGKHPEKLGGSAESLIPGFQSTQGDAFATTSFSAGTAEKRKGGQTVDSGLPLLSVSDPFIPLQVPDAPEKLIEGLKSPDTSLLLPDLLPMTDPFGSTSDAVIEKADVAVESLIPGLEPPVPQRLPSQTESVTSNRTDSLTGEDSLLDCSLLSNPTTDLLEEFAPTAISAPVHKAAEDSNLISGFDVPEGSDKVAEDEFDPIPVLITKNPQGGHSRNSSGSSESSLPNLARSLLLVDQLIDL

KinomeScan kinase panel [5] = biological target: T5, KinomeScan kinase panel (Homo sapiens, UniProt P42684); experiment: as above; type: binding; conditions: ABL2, 10 µM; read-out: score (%)
T5 construct: purchased DiscoveRx (KinomeScan)
T5 sequence (P42684 whole entry): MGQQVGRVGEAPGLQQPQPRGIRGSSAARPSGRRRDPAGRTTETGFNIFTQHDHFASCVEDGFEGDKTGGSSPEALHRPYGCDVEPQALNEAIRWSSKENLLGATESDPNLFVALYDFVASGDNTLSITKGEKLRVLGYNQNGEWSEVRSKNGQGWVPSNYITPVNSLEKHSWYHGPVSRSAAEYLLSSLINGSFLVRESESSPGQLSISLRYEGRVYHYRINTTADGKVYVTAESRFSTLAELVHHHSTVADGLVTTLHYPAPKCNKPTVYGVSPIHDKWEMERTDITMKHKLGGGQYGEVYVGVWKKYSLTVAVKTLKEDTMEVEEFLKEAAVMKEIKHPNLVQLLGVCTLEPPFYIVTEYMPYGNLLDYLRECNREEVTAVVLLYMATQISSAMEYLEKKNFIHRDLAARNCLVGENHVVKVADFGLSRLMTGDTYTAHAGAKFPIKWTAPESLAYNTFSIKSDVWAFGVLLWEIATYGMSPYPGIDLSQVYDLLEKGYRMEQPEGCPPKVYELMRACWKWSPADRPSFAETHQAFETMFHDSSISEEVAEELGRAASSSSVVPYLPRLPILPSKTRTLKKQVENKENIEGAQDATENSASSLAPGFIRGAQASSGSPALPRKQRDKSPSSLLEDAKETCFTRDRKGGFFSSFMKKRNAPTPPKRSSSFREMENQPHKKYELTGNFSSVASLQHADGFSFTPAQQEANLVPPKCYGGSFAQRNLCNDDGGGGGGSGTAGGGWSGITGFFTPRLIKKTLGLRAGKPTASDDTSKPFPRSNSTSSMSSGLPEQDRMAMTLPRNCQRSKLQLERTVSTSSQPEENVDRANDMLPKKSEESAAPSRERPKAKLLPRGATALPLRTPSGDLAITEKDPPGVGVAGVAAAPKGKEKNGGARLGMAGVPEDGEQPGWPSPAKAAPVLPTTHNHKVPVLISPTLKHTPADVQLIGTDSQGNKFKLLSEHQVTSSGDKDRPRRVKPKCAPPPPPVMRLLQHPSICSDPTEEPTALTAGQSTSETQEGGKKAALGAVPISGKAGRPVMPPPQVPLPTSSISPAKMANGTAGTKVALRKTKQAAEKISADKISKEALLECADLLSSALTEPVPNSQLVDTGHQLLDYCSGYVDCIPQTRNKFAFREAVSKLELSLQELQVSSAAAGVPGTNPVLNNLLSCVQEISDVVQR

KinomeScan kinase panel [6] = biological target: T6, KinomeScan kinase panel (Homo sapiens, UniProt P49674); experiment: as above; type: binding; conditions: CSNK1E, 10 µM; read-out: score (%)
T6 construct: purchased DiscoveRx (KinomeScan)

KinomeScan kinase panel [7] = biological target: T7, KinomeScan kinase panel (Homo sapiens, UniProt P10721, T670I/V559D); experiment: as above; type: binding; conditions: KIT(V559D.T670I), 10 µM; read-out: score (%)
T7 construct: purchased DiscoveRx (KinomeScan)

KinomeScan kinase panel [8] = biological target: T8, KinomeScan kinase panel (Homo sapiens, UniProt P29376); experiment: as above; type: binding; conditions: LTK, 10 µM; read-out: score (%)
T8 construct: purchased DiscoveRx (KinomeScan)
T8 sequence (P29376 17-864): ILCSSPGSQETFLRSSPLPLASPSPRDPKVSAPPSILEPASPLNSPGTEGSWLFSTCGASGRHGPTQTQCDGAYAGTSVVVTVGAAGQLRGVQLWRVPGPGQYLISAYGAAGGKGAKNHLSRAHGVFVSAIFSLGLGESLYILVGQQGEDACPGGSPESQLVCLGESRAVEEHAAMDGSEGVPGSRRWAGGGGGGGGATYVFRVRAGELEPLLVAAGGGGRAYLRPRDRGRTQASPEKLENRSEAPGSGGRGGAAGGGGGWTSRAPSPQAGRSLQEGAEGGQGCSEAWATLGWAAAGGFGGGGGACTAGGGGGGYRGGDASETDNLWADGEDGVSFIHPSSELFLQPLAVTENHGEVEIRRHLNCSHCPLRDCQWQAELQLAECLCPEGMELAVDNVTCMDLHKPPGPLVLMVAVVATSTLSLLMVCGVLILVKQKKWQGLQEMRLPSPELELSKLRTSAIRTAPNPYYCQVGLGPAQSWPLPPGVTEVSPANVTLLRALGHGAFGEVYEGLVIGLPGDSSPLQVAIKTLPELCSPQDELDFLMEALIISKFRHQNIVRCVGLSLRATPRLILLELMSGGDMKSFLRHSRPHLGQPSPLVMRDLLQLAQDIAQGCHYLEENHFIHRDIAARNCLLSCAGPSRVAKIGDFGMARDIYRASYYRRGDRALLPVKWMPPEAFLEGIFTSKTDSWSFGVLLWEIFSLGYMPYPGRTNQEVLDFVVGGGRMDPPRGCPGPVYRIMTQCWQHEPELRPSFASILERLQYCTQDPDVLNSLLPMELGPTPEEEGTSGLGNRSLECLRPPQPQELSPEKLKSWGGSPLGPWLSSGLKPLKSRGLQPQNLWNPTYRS

KinomeScan kinase panel [9] = biological target: T9, KinomeScan kinase panel (Homo sapiens, UniProt Q9UQM7); experiment: as above; type: binding; conditions: CAMK2A, 10 µM; read-out: score (%)
T9 construct: purchased DiscoveRx (KinomeScan)
T9 sequence (Q9UQM7 whole entry): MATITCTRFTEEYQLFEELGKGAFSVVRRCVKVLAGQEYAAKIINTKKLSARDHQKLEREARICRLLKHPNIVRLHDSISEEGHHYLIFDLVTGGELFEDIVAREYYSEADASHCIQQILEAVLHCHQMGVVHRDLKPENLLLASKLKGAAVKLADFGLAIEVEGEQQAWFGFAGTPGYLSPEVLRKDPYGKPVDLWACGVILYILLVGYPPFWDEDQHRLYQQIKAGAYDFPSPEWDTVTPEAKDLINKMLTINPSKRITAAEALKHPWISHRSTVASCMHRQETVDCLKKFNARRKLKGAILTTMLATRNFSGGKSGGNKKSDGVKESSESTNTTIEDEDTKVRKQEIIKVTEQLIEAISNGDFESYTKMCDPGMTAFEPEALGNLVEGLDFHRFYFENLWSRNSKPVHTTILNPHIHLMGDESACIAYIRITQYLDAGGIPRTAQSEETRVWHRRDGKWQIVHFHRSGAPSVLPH

KinomeScan kinase panel [10] = biological target: T10, KinomeScan kinase panel (Homo sapiens, UniProt Q9BVS4); experiment: as above; type: binding; conditions: read-out: score (%)
T10 construct: purchased DiscoveRx (KinomeScan)
T10 sequence (Q9BVS4 whole entry): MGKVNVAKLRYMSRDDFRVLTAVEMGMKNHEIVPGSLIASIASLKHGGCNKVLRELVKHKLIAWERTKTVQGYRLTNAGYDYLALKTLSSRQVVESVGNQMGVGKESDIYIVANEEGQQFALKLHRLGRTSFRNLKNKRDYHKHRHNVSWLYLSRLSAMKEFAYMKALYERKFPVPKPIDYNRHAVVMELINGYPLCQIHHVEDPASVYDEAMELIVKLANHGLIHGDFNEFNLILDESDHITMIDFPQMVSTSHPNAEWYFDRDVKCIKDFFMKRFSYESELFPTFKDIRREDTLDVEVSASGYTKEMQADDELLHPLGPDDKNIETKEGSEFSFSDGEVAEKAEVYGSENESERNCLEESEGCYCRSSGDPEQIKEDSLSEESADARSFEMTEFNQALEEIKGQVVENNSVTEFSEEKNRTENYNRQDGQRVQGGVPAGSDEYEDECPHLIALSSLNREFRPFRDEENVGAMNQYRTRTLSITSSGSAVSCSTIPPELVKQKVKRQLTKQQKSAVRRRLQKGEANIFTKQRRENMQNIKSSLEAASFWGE

RAT RET/C634R cells = type: cell-based; conditions: low serum, last day values, 95% CI in brackets, read-out: Growth inhibition IC50 dose: RAT RET/C634R
Description: as §1

SMILES	inhibition of RET/C634Y protein (RET/C634Y) [%]	IC50 (TPC-1 cells) [nM]	IC50 (RAT RET/M918T cells) [nM]	remaining binding at 10 µM (KinomeScan kinase panel [1]) [%]	remaining binding at 10 µM (KinomeScan kinase panel [2]) [%]	remaining binding at 10 µM (KinomeScan kinase panel [3]) [%]	remaining binding at 10 µM (KinomeScan kinase panel [4]) [%]	remaining binding at 10 µM (KinomeScan kinase panel [5]) [%]	remaining binding at 10 µM (KinomeScan kinase panel [6]) [%]	remaining binding at 10 µM (KinomeScan kinase panel [7]) [%]	remaining binding at 10 µM (KinomeScan kinase panel [8]) [%]	remaining binding at 10 µM (KinomeScan kinase panel [9]) [%]	remaining binding at 10 µM (KinomeScan kinase panel [10]; RIOK2, 10 µM) [%]	IC50 (RAT RET/C634R cells) [nM]	remaining binding at 10 µM (KinomeScan kinase panel [10]; kinase RIOK2, 10 µM) [%]
CCN1CCN(Cc2ccc(NC(=O)c3ccc(C)c(NC(=O)c4cncc(-c5cccs5)c4)c3)cc2C(F)(F)F)CC1 [ALW-II-41-27]	> 30	19.7	56	0.1	> 30	> 30	> 30	0.1	0.8	0.05	> 30	> 30	> 30	44	–
CCN1CCN(Cc2ccc(NC(=O)c3ccc(C)c(/C=C/c4cnc5[nH]ccc5c4Cl)c3)cc2C(F)(F)F)CC1 [HG-6-63-01, (E)-3-(2-(4-chloro-1H-pyrrolo[2,3-b]pyridin-5-yl)vinyl)-N-(4-((4-ethylpiperazin-1-yl)methyl)-3-(trifluoromethyl)phenyl)-4-methylbenzamide]	> 30	9.8	16	0.1	> 30	30	27	0.1	15	0	> 30	> 30	33	21	–
CCN1CCN(Cc2ccc(NC(=O)c3ccc(C)c(C#Cc4cccnc4)c3)cc2C(F)(F)F)CC1 [XMD15-44]	> 30	37.1	8.3	0	100	3.3	> 30	0.05	> 30	0	4.5	> 30	–	11.5	0.5
